Experimental data published in patent US10226041B2, “Compositions and methods for improving the quality of processed sperm” (Inguran, LLC, priority 2011, dated 2019).

Test system: sex-sorted sperm cells
Assay: CASA post-thaw motility of sex sorted bull sperm treated with OSR
Format: cell-based, bovine
Conditions: 3 hr; 1 step-stain (+−−); Bull C (Jersey), Trial 2

vitamin B12
% Motility: 37%
